pIC50: −log10 of the molar value.

T1 sequence (P53350 whole entry): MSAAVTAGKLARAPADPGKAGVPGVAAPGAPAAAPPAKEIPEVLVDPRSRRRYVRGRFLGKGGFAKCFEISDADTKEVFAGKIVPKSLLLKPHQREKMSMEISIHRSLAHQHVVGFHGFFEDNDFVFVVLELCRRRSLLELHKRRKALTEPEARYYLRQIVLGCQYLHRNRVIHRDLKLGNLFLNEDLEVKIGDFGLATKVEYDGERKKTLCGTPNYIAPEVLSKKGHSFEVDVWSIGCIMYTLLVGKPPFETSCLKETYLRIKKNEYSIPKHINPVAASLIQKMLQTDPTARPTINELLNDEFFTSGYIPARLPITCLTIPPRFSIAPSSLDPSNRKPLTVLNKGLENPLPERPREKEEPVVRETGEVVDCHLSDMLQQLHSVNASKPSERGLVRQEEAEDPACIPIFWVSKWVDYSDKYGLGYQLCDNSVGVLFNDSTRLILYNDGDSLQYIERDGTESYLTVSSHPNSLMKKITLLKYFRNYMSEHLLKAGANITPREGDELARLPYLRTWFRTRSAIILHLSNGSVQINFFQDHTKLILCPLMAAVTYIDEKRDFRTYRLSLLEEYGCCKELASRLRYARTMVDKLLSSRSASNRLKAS

This assay has as its target T1, PLK1 (Homo sapiens, UniProt P53350).
T1 construct: Full-length, active GST-Plk1 was purified from Sf9 insect cells; GST (N); made in house; host or cells: Sf9 insect cells
The assay can be described thus: Biochemical Characterization Assay B (peptide substrate, LABCHIP EZ Reader II). The note with it: PLK1, peptide RRRAGALMDASFEEQ-CONH2, % conversion on LABCHIP EZ Reader II. As to the method: Compounds were serially diluted to 6400, 2133, 711, 237, 79, 26, 8.78, 2.93, 0.98 and 0.33 μM in 100% DMSO. Diluted compound was further diluted 20 fold with Kinase Assay Buffer (KAB). Peptide RRRAGALMDASFEEQ-CONH2 (MW 2090) was diluted to 1.2 μM with KAB and ATP was added to 400 μM. PLK1 stock, prepared as described above, was diluted to 3 μg protein/mL with KAB right before it was added to MATRIX 384-Well Polypropylene Black Plates to start the reaction. 20 μL of KAB diluted compounds (or 5% DMSO in KAB for Total and Blank), 20 μL of KAB diluted peptide with ATP and 40 μL of KAB diluted PLK1 solution (KAB without PLK 1 for Blanks) were transferred to each well of the polypropylene plates. The reaction mixtures were incubated at room temperature for 40 minutes. Reactions were stopped by addition of 10 uL Reaction Stopping Buffer (RSB) to each well. Plates were then read on LABCHIP EZ Reader II from Caliper Life Science.
The IC50 values for each compound were generated using an Excel template. The % conversion readings of Total and Blank were used as 0% and 100% inhibition. The percent inhibition values of reactions in the presence of compounds were calculated, and plotted against compound concentrations. All data were fitted into a Dose Response One Site model (4 parameter logistic model) as the following: (A+4B−A)/(1+((x/C)^13)))), with A and B as the bottom and top of the curve (highest and lowest inhibition), respectively, and C as IC50 and D as Hill Coefficient of the compound.
The term pIC50 denotes −log10 of the IC50, conventionally taken in molar units. Higher therefore signals a low IC50. With `CC(C)(C)OC(=O)NC1CCN(Cc2ccc3ncn(-c4nc(-c5cccc(Cl)c5)c(C(N)=O)s4)c3c2)CC1` [Example 12], the pIC50 is 6.18. In turn, `CN1CCC(Oc2ccc3ncn(-c4nc(-c5cccc(Cl)c5)c(C(N)=O)s4)c3c2)CC1` [Example 22, 4-(3-Chloro-phenyl)-2-[6-(1-methyl-piperidin-4-yloxy)-benzoimidazol-1-yl]-thiazole-5-carboxylic acid amide] had a negative logarithm of the IC50 (pIC50) of 7.74. This pIC50 is 1.56 log units higher than that of the molecule before.

The molecule `CN1CCN(CC(O)COc2ccc3ncn(-c4nc(-c5cccc(Cl)c5)c(C(N)=O)s4)c3c2)CC1` (stereo not drawn) [Example 39, 4-(3-Chloro-phenyl)-2-{6-[2-hydroxy-3-(4-methyl-piperazin-1-yl)-propoxy]-benzoimidazol-1-yl}-thiazole-5-carboxylic acid amide] gave a negative logarithm of the IC50 (pIC50) of 7.30. This pIC50 is 0.44 log units lower than that of the molecule before. The molecule `COc1cc2ncn(-c3nc(-c4cccc(Cl)c4)c(C(N)=O)s3)c2cc1OCCN1CCOCC1` [Example 45, 4-(3-Chloro-phenyl)-2-[5-methoxy-6-(2-morpholin-4-yl-ethoxy)-benzoimidazol-1-yl]-thiazole-5-carboxylic acid amide] gave a pIC50 of 7.59. As to `NC(=O)c1sc(-n2cnc3ccc(OCC4CCNCC4)cc32)nc1-c1cccc(Cl)c1` [Example 23, 4-(3-Chloro-phenyl)-2-[6-(piperidin-4-ylmethoxy)-benzoimidazol-1-yl]-thiazole-5-carboxylic acid amide], the pIC50 is 7.77.

In turn, `CC(C)(C)OC(=O)NC(C)(C)C(=O)NC1CCN(Cc2ccc3ncn(-c4nc(-c5cccc(Cl)c5)c(C(N)=O)s4)c3c2)CC1` [Example 15, [1-(1-{3-[5-Carbamoyl-4-(3-chloro-phenyl)-thiazol-2-yl]-3H-benzoimidazol-5-ylmethyl}-piperidin-4-ylcarbamoyl)-1-methyl-ethyl]-carbamic acid tert-butyl ester] had a pIC50 of 5.28. This pIC50 lies 2.49 log units lower than the previous one.

Regarding `NC(=O)c1sc(-n2cnc3ccc(CN4CCC(N)CC4)cc32)nc1-c1cccc(Cl)c1` [Example 13, 2-[6-(4-Amino-piperidin-1-ylmethyl)-benzoimidazol-1-yl]-4-(3-chloro-phenyl)-thiazole-5-carboxylic acid amide], the pIC50 was 7.43.

Molecule `COc1cc2ncn(-c3nc(-c4cccc(Cl)c4)c(C(N)=O)s3)c2cc1CN1CCN(C)CC1` [Example 46, 4-(3-Chloro-phenyl)-2-[5-methoxy-6-(4-methyl-piperazin-1-ylmethyl)-benzoimidazol-1-yl]-thiazole-5-carboxylic acid amide] had a pIC50 of 7.89. `NC(=O)c1sc(-n2cnc3ccc(OCCN4CCCCC4)cc32)nc1-c1cccc(Cl)c1` [Example 27, 4-(3-Chloro-phenyl)-2-[6-(2-piperidin-1-yl-ethoxy)-benzoimidazol-1-yl]-thiazole-5-carboxylic acid amide]: the pIC50 is 6.58. Then `CN1CCN(CCOc2ccc3ncn(-c4nc(-c5cccc(Cl)c5)c(C(N)=O)s4)c3c2)CC1` [Example 28, 4-(3-Chloro-phenyl)-2-{6-[2-(4-methyl-piperazin-1-yl)-ethoxy]-benzoimidazol-1-yl}-thiazole-5-carboxylic acid amide], with 6.98.

For the molecule `NC(=O)c1sc(-n2cnc3ccc(CN(CCCN4CCOCC4)CCCN4CCOCC4)cc32)nc1-c1cccc(Cl)c1` [Example 49, 2-(6-{[Bis-(3-morpholin-4-yl-propyl)-amino]-methyl}-benzoimidazol-1-yl)-4-(3-chloro-phenyl)-thiazole-5-carboxylic acid amide], the pIC50 is 6.25. Molecule `CN1CCN(CCCCOc2ccc3ncn(-c4nc(-c5cccc(Cl)c5)c(C(N)=O)s4)c3c2)CC1` [Example 37, 4-(3-Chloro-phenyl)-2-{6-[4-(4-methyl-piperazin-1-yl)-butoxy]-benzoimidazol-1-yl}-thiazole-5-carboxylic acid amide] showed a pIC50 of 7.57. Then `CN(C)CCN(C)Cc1ccc2ncn(-c3nc(-c4cccc(Cl)c4)c(C(N)=O)s3)c2c1` [Example 6, 4-(3-Chloro-phenyl)-2-(6-{[(2-dimethylamino-ethyl)-methyl-amino]-methyl}-benzoimidazol-1-yl)-thiazole-5-carboxylic acid amide], with 6.30; and `CN1CCC(COc2ccc3ncn(-c4nc(-c5cccc(Cl)c5)c(C(N)=O)s4)c3c2)CC1` [Example 24, 4-(3-Chloro-phenyl)-2-[6-(1-methyl-piperidin-4-ylmethoxy)-benzoimidazol-1-yl]-thiazole-5-carboxylic acid amide], with 7.85. `NC(=O)c1sc(-n2cnc3ccc(OCCCCN4CCOCC4)cc32)nc1-c1cccc(Cl)c1` [Example 38, 4-(3-Chloro-phenyl)-2-[6-(4-morpholin-4-yl-butoxy)-benzoimidazol-1-yl]-thiazole-5-carboxylic acid amide] showed a pIC50 of 7.96. In turn, `NC(=O)c1sc(-n2cnc3ccc(OCCCNCCO)cc32)nc1-c1cccc(Cl)c1` [Example 36, 4-(3-Chloro-phenyl)-2-{6-[3-(2-hydroxy-ethylamino)-propoxy]-benzoimidazol-1-yl}-thiazole-5-carboxylic acid amide] had a negative-log IC50 (pIC50) of 7.10. Under `NC(=O)c1sc(-n2cnc3ccc(OCCCN4CCCC4)cc32)nc1-c1cccc(Cl)c1` [Example 34, 4-(3-Chloro-phenyl)-2-[6-(3-pyrrolidin-1-yl-propoxy)-benzoimidazol-1-yl]-thiazole-5-carboxylic acid amide] stands 7.30; under `CN1CCC(C(=O)NC2CCN(Cc3ccc4ncn(-c5nc(-c6cccc(Cl)c6)c(C(N)=O)s5)c4c3)CC2)CC1` [Example 14, 1-Methyl-piperidine-4-carboxylic acid (1-{3-[5-carbamoyl-4-(3-chloro-phenyl)-thiazol-2-yl]3H-benzoimidazol-5-ylmethyl}-piperidin-4-yl)-amide], 5.83; under `COc1cc2ncn(-c3nc(-c4cccc(Cl)c4)c(C(N)=O)s3)c2cc1OCCN1CCN(C)CC1` [Example 44, 4-(3-Chloro-phenyl)-2-{5-methoxy-6-[2-(4-methyl-piperazin-1-yl)-ethoxy]-benzoimidazol-1-yl}-thiazole-5-carboxylic acid amide], 7.21.

Consider `NC(=O)c1sc(-n2cnc3ccc(OCCCN4CCCCC4)cc32)nc1-c1cccc(Cl)c1` [Example 32, 4-(3-Chloro-phenyl)-2-[6-(3-piperidin-1-yl-propoxy)-benzoimidazol-1-yl]-thiazole-5-carboxylic acid amide], for which the pIC50 is 7.10.

The molecule `CN(CCCN1CCOCC1)Cc1ccc2ncn(-c3nc(-c4cccc(Cl)c4)c(C(N)=O)s3)c2c1` [Example 50, 4-(3-Chloro-phenyl)-2-(6-{[methyl-(3-morpholin-4-yl-propyl)-amino]-methyl}-benzoimidazol-1-yl)-thiazole-5-carboxylic acid amide] showed a pIC50 of 7.07. Under `NC(=O)c1sc(-n2cnc3ccc(CCCCN4CCOCC4)cc32)nc1-c1cccc(Cl)c1` [Example 41, 4-(3-Chloro-phenyl)-2-[6-(4-morpholin-4-yl-butyl)-benzoimidazol-1-yl]-thiazole-5-carboxylic acid amide] stands 7.80; under `CC(C)(N)C(=O)NC1CCN(Cc2ccc3ncn(-c4nc(-c5cccc(Cl)c5)c(C(N)=O)s4)c3c2)CC1` [Example 16, 2-{6-[4-(2-Amino-2-methyl-propionylamino)-piperidin-1-ylmethyl]-benzoimidazol-1-yl}-4-(3-chloro-phenyl)-thiazole-5-carboxylic acid amide], 5.89; under `CN(C)CCOc1ccc2ncn(-c3nc(-c4cccc(Cl)c4)c(C(N)=O)s3)c2c1` [Example 29, 4-(3-Chloro-phenyl)-2-[6-(2-dimethylamino-ethoxy)-benzoimidazol-1-yl]-thiazole-5-carboxylic acid amide], 6.45.

`NC(=O)c1sc(-n2cnc3ccc(OCC(O)CN4CCOCC4)cc32)nc1-c1cccc(Cl)c1` (stereo not drawn) [Example 40, 4-(3-Chloro-phenyl)-2-[6-(2-hydroxy-3-morpholin-4-yl-propoxy)-benzoimidazol-1-yl]-thiazole-5-carboxylic acid amide] gave a negative logarithm of the IC50 (pIC50) of 7.89.

With `COc1cc2ncn(-c3nc(-c4cccc(Cl)c4)c(C(N)=O)s3)c2cc1OCCCN1CCOCC1` [Example 43, 4-(3-Chloro-phenyl)-2-[5-methoxy-6-(3-morpholin-4-yl-propoxy)-benzoimidazol-1-yl]-thiazole-5-carboxylic acid amide], the pIC50 is 8.10.

Regarding `NC(=O)c1sc(-n2cnc3ccc(OCCCN(CCO)CCO)cc32)nc1-c1cccc(Cl)c1` [Example 35, 2-(6-{3-[Bis-(2-hydroxy-ethyl)-amino]-propoxy}-benzoimidazol-1-yl)-4-(3-chloro-phenyl)-thiazole-5-carboxylic acid amide], the pIC50 was 7.17.

The values are drawn from patent US8044213B2, “Thiazolyl-benzimidazoles” (Hoffmann-La Roche Inc., priority 2008, dated 2011).
